Measurements as given in ChEMBL document CHEMBL6087391, “Novel bibenzyl compound 8Ae induces apoptosis and inhibits glycolysis by detaching hexokinase 2 from mitochondria in A549 cells” (Bioorg Med Chem, 2024).
Active and inactive are the calls of the source. No cut-off for these calls is given here.

Assays:
[1] = tested on: A549; assay: Induction of mitochondria mediated apoptosis in human A549 cells assessed as reduction in HK2 level at […] incubated for 48 hrs by immunofluorescence confocal microscopic analysis; assay type: functional, cell-based
[2] = tested on: Mitochondrial membrane; assay: Induction of mitochondrial membrane potential loss in human A549 cells at 1 to 10 uM incubated for 48 hrs by JC-1 dye based fluorescence microscopic analysis; assay type: cell membranes; details: dose 1-10 µM
[3] = tested on: A549; assay: Inhibition of glycolysis in human A549 cells assessed as downregulation of GLUT1 expression in cytosol fraction at 1 to 10 uM incubated for 48 hrs by Western blotting analysis; assay type: functional, cell-based; details: dose 1-10 µM
[4] = tested on: A549; assay: Inhibition of glycolysis in human A549 cells assessed as decrease in HK2 activity incubated for 48 hrs by spectrophotometric assay; assay type: functional, cell-based; details: A549, 48 h
[5] = tested on: A549; assay: Induction of mitochondria mediated apoptosis in human A549 cells assessed as reduction in HK2 level at 1 to 10 uM incubated for 48 hrs by immunofluorescence confocal microscopic analysis; assay type: functional, cell-based; details: dose 1-10 µM
[6] = tested on: A549; assay: Induction of apoptosis in human A549 cells assessed as early apoptotic cells at 1 uM incubated for 48 hrs by Annexin V-FITC/PI staining based flow cytometry; assay type: functional
[7] = tested on: A549; assay: Induction of apoptosis in human A549 cells assessed as upregulation of Bax expression at 1 to 10 uM incubated for 48 hrs by Western blotting analysis; assay type: functional, cell-based; details: dose 1-10 µM
[8] = tested on: A549; assay: Induction of apoptosis in human A549 cells assessed as late apoptotic cells at 1 uM incubated for 48 hrs by Annexin V-FITC/PI staining based flow cytometry; assay type: functional
[9] = tested on: A549; assay: Induction of apoptosis in human A549 cells assessed as downregulation of AKT expression at 1 to 10 uM incubated for 48 hrs by Western blotting analysis; assay type: functional, cell-based; details: dose 1-10 µM
[10] = tested on: A549; assay: Induction of apoptosis in human A549 cells assessed as downregulation of Bcl-2 expression at 1 to 10 uM incubated for 48 hrs by Western blotting analysis; assay type: functional, cell-based; details: dose 1-10 µM
[11] = tested on: A549; assay: Induction of apoptosis in human A549 cells assessed as late apoptotic cells at 10 uM incubated for 48 hrs by Annexin V-FITC/PI staining based flow cytometry; assay type: functional
[12] = tested on: A549; assay: Inhibition of glycolysis in human A549 cells assessed as reduction in lactate production at 5 uM incubated for 48 hrs by trypan blue staining based spectrophotometry; assay type: functional
[13] = tested on: A549; assay: Inhibition of glycolysis in human A549 cells assessed as reduction in lactate production at 10 uM incubated for 48 hrs by trypan blue staining based spectrophotometry; assay type: functional
[14] = tested on: A549; assay: Induction of apoptosis in human A549 cells assessed as downregulation of Cyt C expression in mitochondrial fraction at 1 to 10 uM incubated for 48 hrs by Western blotting analysis; assay type: functional, cell-based; details: dose 1-10 µM
[15] = tested on: BEAS-2B; assay: Antiproliferative activity against human BEAS-2B cells assessed as inhibition of cell growth incubated for 48 hrs by MTT assay; assay type: toxicity, cell-based
[16] = tested on: A549; assay: Inhibition of glycolysis in human A549 cells assessed as downregulation of HK2 expression in cytosol fraction at 1 to 10 uM incubated for 48 hrs by Western blotting analysis; assay type: functional, cell-based; details: dose 1-10 µM
[17] = tested on: A549; assay: Inhibition of glycolysis in human A549 cells assessed as downregulation of HK2 expression incubated for 48 hrs by Western blotting analysis; assay type: functional, cell-based
[18] = tested on: A549; assay: Induction of apoptosis in human A549 cells assessed as early apoptotic cells at 10 uM incubated for 48 hrs by Annexin V-FITC/PI staining based flow cytometry; assay type: functional
[19] = tested on: A549; assay: Inhibition of glycolysis in human A549 cells assessed as reduction in glucose uptake incubated for 48 hrs by Amplex red dye based spectrophotometry; assay type: functional, cell-based
[20] = tested on: A549; assay: Induction of apoptosis in human A549 cells assessed as late apoptotic cells at 5 uM incubated for 48 hrs by Annexin V-FITC/PI staining based flow cytometry; assay type: functional
[21] = tested on: A549; assay: Inhibition of glycolysis in human A549 cells assessed as downregulation of GLUT1 expression at 1 to 10 uM incubated for 48 hrs by Western blotting analysis; assay type: functional, cell-based; details: dose 1-10 µM
[22] = tested on: A549; assay: Induction of apoptosis in human A549 cells assessed as downregulation of AKT phosphorylation at 1 to 10 uM incubated for 48 hrs by Western blotting analysis; assay type: functional, cell-based; details: dose 1-10 µM
[23] = tested on: A549; assay: Induction of apoptosis in human A549 cells assessed as upregulation of Cyt C expression in cytosol fraction at 1 to 10 uM incubated for 48 hrs by Western blotting analysis; assay type: functional, cell-based; details: dose 1-10 µM
[24] = tested on: A549; assay: Antiproliferative activity against human A549 cells assessed as inhibition of cell growth incubated for 48 hrs by MTT assay; assay type: functional, cell-based; details: A549, 48 h
[25] = tested on: A549; assay: Inhibition of glycolysis in human A549 cells assessed as reduction in lactate production at 1 uM incubated for 48 hrs by trypan blue staining based spectrophotometry; assay type: functional
[26] = tested on: MDA-MB-231; assay: Antiproliferative activity against human MDA-MB-231 cells assessed as inhibition of cell growth incubated for 48 hrs by MTT assay; assay type: functional, cell-based; details: MDA-MB-231, 48 h
[27] = tested on: A549; assay: Induction of apoptosis in human A549 cells assessed as increase in ratio of Bax/Bcl-2 at 1 to 10 uM incubated for 48 hrs by Western blotting analysis; assay type: functional, cell-based; details: dose 1-10 µM
[28] = tested on: A549; assay: Antiproliferative activity against human A549 cells assessed as reduction in cell viability incubated for 48 hrs by MTT assay; assay type: functional, cell-based
[29] = tested on: A549; assay: Induction of apoptosis in human A549 cells assessed as early apoptotic cells at 5 uM incubated for 48 hrs by Annexin V-FITC/PI staining based flow cytometry; assay type: functional
[30] = tested on: A549; assay: Inhibition of glycolysis in human A549 cells assessed as downregulation of HK2 expression in mitochondrial fraction at 1 to 10 uM incubated for 48 hrs by Western blotting analysis; assay type: functional, cell-based; details: dose 1-10 µM

SMILES: OC[C@H]1OC(O)C[C@@H](O)[C@@H]1O (some centres not stated)
- Activity [1]: Active

SMILES: COc1cc(CCc2ccccc2Cl)cc(OC)c1O
- Activity [2]: Active
- inhibition [3]: inactive
- IC50 [4]: ~10 µM
- Activity [5]: Active
- Activity [6]: 16.9%
- Activity [7]: Active
- Activity [8]: 21.6%
- Activity [9]: inactive
- Activity [10]: Active
- Activity [11]: 34.5%
- Activity [12]: 4.38 mmol/L
- Activity [13]: 3.91 mmol/L
- Activity [14]: Active
- Activity [15]: Toxic
- inhibition [16]: inactive
- inhibition [17]: Dose-dependent-effect
- Activity [18]: 33.53%
- inhibition [19]: Dose-dependent-effect
- Activity [20]: 24.7%
- inhibition [21]: Active
- Activity [22]: Active
- Activity [23]: Active
- IC50 [24]: 2.72 µM
- Activity [25]: 4.54 mmol/L
- IC50 [26]: 19.2 µM
- Activity [27]: Active
- Activity [28]: Dose-dependent-effect
- Activity [29]: 30.9%
- inhibition [30]: Dose-dependent-effect

SMILES: CC(C)=CCC[C@]1(C)C=Cc2c(O)c3c(c(CC=C(C)C)c2O1)O[C@]12C(=C[C@@H]4C[C@H]1C(C)(C)O[C@@]2(C/C=C(/C)C(=O)O)C4=O)C3=O [GAMBOGIC ACID]
- Activity [11]: 30.2%
- Activity [18]: 30.67%
